Data published in US6451576B1, “Sesquiterpene synthases from grand fir (Abies grandis), and methods of use” (Washington State University Research Foundation, priority 1998, dated 2002).

Tests used:
[1] = system: partially purified inducible sesquiterpene synthases; assay: Sesquiterpene synthase assay with partially purified extract of wounded grand fir stems; format: biochemical, Abies grandis; conditions: partially purified inducible sesquiterpene synthases from wounded stems; read-out: Km value for [1-3H]farnesyl diphosphate
From the text: Grand fir saplings in active growth were used as the enzyme source for determination of constitutive terpenoid synthases and of terpenoid synthases which had been induced in wounded stems by a standard wounding protocol (Funk, C., et al., (1994) Plant Physiol. 106, 999-1005). Stems from control saplings and saplings eight days after wounding (usually ten saplings) were harvested by removing the top and lateral growth, and cutting at about 5 cm from the base. The stems were chopped into 5-7 cm segments, frozen in liquid N2 and, following removal of any needles, were ground to a powder in a liquid N2-chilled No. 1 Wiley mill. The frozen powder was added to chilled extraction buffer (5 ml/g fresh tissue weight) consisting of 10 mM dibasic potassium phosphate and 1.8 mM monobasic potassium phosphate (pH 7.3), 140 mM NaCl, 20 mM β-mercaptoethanol, 10 mM MgCl2, 5 mM MnCl2, 10% (v/v) glycerol and 1% (w/v) each of polyvinylpyrrolidone (Mr 40,000) and polyvinylpolypyrrolidone. […]
Liquid scintillation counting was performed in 10 ml toluene:ethanol (7:3, v/v) containing 0.4% (w/v) Omnifluor (DuPont-NEN) at a ^3H counting efficiency of 43%. Protein concentrations were determined by the method of Bradford (Bradford, M. M. (1976) Anal. Biochem. 72, 248-254) using the Bio-Rad reagent and bovine serum albumin as standard. […]

[2] = target: T1, δ-selinene synthase (SEQ ID No:20) (Abies grandis, UniProt O64404); assay: Kinetic parameters, metal ion requirement and substrate specificity of recombinant δ-selinene synthase; format: biochemical; conditions: for Km: read-out: Km value for divalent metal ion
T1 construct: made in house; host or cells: E. coli XL1-Blue/pGAG4 or E. coli BL21(DE3)/pSBAG4
T1 sequence (O64404 1-581): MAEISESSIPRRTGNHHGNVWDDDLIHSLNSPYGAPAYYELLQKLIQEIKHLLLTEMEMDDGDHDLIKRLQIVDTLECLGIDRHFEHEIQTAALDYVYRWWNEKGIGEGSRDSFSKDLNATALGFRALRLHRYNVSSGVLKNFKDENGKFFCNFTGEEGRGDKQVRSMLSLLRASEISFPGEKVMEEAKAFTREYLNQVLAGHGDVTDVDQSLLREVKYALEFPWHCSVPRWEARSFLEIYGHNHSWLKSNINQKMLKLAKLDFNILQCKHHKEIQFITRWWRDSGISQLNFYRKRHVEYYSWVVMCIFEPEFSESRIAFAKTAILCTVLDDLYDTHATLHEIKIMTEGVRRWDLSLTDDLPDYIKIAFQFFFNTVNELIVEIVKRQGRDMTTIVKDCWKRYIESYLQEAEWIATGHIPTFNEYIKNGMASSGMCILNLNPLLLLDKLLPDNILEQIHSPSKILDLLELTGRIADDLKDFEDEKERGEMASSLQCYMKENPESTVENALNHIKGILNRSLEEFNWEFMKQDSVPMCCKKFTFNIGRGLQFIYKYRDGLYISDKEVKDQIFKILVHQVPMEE
Method: (§1) The assay for recombinant sesquiterpene synthase (cyclase) activity was performed in 1 ml of buffer (extraction buffer without MnCl2 or the polymeric adsorbents) containing 3.5 μM [1-^3H]farnesyl diphosphate and the total protein extracted from a 5 ml bacterial culture to produce 10^5-10^6 dpm of product in 2 h at 31° C. The incubation mixture was overlaid with 1 ml pentane to trap volatile products. After incubation, the reaction mixture was extracted with pentane (3×1 ml) and the combined extract was passed through a MgSO4-silica gel column to provide the terpene hydrocarbon fractions as before. The columns were subsequently eluted with 3×1 ml of ether to collect any oxygenated products, and an aliquot of each fraction was taken for liquid scintillation counting to determine conversion rate. The monoterpene synthase and diterpene synthase activity assays were similarly performed as described in detail elsewhere (LaFever, R. E., et al., (1994) Arch. Biochem. Biophys. 313, 139-149; Bohlmann, J., et al., (1997) J. Biol. Chem. 272, 21784-21792; Lewinsohn, E., et al., (1991) Plant Physiol. 96, 38-43).
(§2) The substrate specificity and other kinetic. parameters of γ-humulene synthase (SEQ ID No:24) and δ-selinene synthase (SEQ ID No:20) were investigated in order to confirm the identification and classification of these enzymes. […] Neither of these sesquiterpene synthases requires K^+ or other monovalent cation for activity.
(§3) Substrate specificity of δ-selinene synthase (SEQ ID No:20) and γ-humulene synthase (SEQ ID No:24) was evaluated by comparing farnesyl diphosphate (C15) to geranyl diphosphate (C10) and geranylgeranyl diphosphate (C20) at saturation as precursors of the respective terpene olefins. […] The identities of the monoterpene products produced by the sesquiterpene synthases were determined by GLC-MS and are set forth in FIG. 4.

[3] = target: T2, γ-humulene synthase (SEQ ID No:24) (Abies grandis, UniProt O64405); assay: Kinetic parameters, metal ion requirement and substrate specificity of recombinant γ-humulene synthase; format: biochemical; conditions: for monoterpene product formed from geranyl diphosphate: GLC-MS; for Km: read-out: Km value for divalent metal ion
T2 construct: For further subcloning of the amplified, full-length cDNA into the pSBETa vector for high-level expression, the pGAG5 insert was amplified; made in house; host or cells: E. coli XL1-Blue/pGAG5 or E. coli BL21(DE3)/pSBAG5
T2 sequence (O64405 1-593): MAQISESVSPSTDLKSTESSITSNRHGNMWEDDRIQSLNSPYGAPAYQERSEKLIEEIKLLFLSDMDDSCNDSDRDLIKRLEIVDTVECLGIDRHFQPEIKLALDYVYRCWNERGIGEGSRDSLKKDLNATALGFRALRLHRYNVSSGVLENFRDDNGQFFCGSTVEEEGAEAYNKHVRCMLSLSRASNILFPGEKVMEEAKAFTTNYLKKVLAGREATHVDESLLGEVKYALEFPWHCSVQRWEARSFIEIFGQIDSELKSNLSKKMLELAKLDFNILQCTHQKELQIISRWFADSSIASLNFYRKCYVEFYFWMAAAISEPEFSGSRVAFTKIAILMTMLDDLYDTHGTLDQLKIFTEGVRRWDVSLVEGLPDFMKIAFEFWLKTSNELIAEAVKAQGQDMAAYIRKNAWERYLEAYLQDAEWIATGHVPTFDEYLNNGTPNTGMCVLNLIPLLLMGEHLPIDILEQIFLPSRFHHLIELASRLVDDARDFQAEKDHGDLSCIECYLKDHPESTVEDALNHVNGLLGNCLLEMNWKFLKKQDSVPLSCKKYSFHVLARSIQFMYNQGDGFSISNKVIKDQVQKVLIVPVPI
Method: as §1, §2, §3

insect larvae = conditions: present in paper made from trees of the genus Abies; cited from earlier work
[4] = substrate: CC(C)=CCC/C(C)=C/CC/C(C)=C/CO[P@@](=O)(O)OP(=O)(O)O; assay: Kinetic parameters, metal ion requirement and substrate specificity of recombinant γ-humulene synthase; format: biochemical, Abies grandis; conditions: other: γ-humulene synthase; estimated; 31.0 °C
Method: as §1, with “The monoterpene synthase and diterpene synthase activity assays were similarly performed as described in detail elsewhere (LaFever, R. E., et al., (1994) Arch. Biochem. Biophys. 313, 139-149; Bohlmann, J., et al., (1997) J. Biol. Chem. 272, 21784-21792; Lewinsohn, E., et al., (1991) Plant Physiol. 96, 38-43).” left out
as §3

[5] = substrate: CC(C)=CCC/C(C)=C/CC/C(C)=C/CO[P@@](=O)(O)OP(=O)(O)O; assay: Kinetic parameters, metal ion requirement and substrate specificity of recombinant δ-selinene synthase; format: biochemical, Abies grandis; conditions: other: δ-selinene synthase; estimated; 31.0 °C
Method: as §1, with “The monoterpene synthase and diterpene synthase activity assays were similarly performed as described in detail elsewhere (LaFever, R. E., et al., (1994) Arch. Biochem. Biophys. 313, 139-149; Bohlmann, J., et al., (1997) J. Biol. Chem. 272, 21784-21792; Lewinsohn, E., et al., (1991) Plant Physiol. 96, 38-43).” left out
as §3

For CC(C)=CCC/C(C)=C/CC/C(C)=C/CO[P@@](=O)(O)OP(=O)(O)O [[1-^3H]farnesyl diphosphate], the Km [1] was roughly 400 nM.

For C=C/C(C)=C/CC=C(C)C [E-ocimene], the “contribution to monoterpene products formed from geranyl diphosphate” value ([2]; GLC-MS) was 22.4% and the “monoterpene product formed from geranyl diphosphate” value (“monoterpene product formed” for short) [3] was “not detectable”.

In the case of [Mn+2] [Mn^2+], the “maximum rate relative to that with Mg2+ at saturation” value [2] is reported as “less than 10%”, the Km [2] is reported as roughly 25 µM and the “metal ion utilization in the cyclization reaction” value [3] is reported as “comparable velocities”. It also gave a Km [3] of roughly 25 µM.

For COC(=O)C1=CC[C@H]([C@H](C)CC(=O)CC(C)C)CC1 [Juvabione], the “effect on maturation of insect larvae” value (insect larvae) is given as “inhibits maturation of insect larvae”.

In the case of C=C1C2CCC(C2)C1(C)C (centres unmarked) [camphene], the “monoterpene product formed” value ([2]; GLC-MS) is reported as “does not produce” and the “monoterpene product formed” value [3] is reported as “detectable amounts”.

For C=C(C)[C@H]1CC=C(C)CC1 [Limonene], the “monoterpene product formed” value ([2]; GLC-MS) was “principal monoterpene product” and the “monoterpene product formed” value [3] was “principal monoterpene product”.

For [Mg+2] [Mg^2+], the Km [2] was roughly 125 µM, the “metal ion utilization in the cyclization reaction” value [3] was “comparable velocities” and the Km [3] was roughly 125 µM.

B1: γ-humulene synthase (SEQ ID No:24) (Abies grandis) (protein)
chain: T2 sequence (O64405 1-593)
notes: For further subcloning of the amplified, full-length cDNA into the pSBETa vector for high-level expression, the pGAG5 insert was amplified; made in house; host or cells: E. coli XL1-Blue/pGAG5 or E. coli BL21(DE3)/pSBAG5
In the case of B1, the Km [4] is reported as 4.5 µM.

B2: δ-selinene synthase (SEQ ID No:20) (Abies grandis) (protein)
chain: T1 sequence (O64404 1-581)
notes: made in house; host or cells: E. coli XL1-Blue/pGAG4 or E. coli BL21(DE3)/pSBAG4
With B2 the Km [5] was 1.5 µM.
